Values of other authors, collected in PMC9516332 (Frontiers in Oncology, 2022).
Where two headings read alike, the source gives them in different places.

Legend:
[1] = target: panel of 255 wild-type kinases (Homo sapiens, UniProt Q13555); conditions: CaMK2γ kinase assay, 1 µmol/L single concentration, cited from earlier work
[2] = target: panel of 255 wild-type kinases (Homo sapiens, UniProt Q96GD4); conditions: AurB kinase assay, 1 µmol/L single concentration, cited from earlier work
[3] = target: T1, panel of 255 wild-type kinases (Homo sapiens, UniProt P54762); conditions: kinase EPHB1, 1 µmol/L single concentration, cited from earlier work
T1 sequence (P54762 18-984): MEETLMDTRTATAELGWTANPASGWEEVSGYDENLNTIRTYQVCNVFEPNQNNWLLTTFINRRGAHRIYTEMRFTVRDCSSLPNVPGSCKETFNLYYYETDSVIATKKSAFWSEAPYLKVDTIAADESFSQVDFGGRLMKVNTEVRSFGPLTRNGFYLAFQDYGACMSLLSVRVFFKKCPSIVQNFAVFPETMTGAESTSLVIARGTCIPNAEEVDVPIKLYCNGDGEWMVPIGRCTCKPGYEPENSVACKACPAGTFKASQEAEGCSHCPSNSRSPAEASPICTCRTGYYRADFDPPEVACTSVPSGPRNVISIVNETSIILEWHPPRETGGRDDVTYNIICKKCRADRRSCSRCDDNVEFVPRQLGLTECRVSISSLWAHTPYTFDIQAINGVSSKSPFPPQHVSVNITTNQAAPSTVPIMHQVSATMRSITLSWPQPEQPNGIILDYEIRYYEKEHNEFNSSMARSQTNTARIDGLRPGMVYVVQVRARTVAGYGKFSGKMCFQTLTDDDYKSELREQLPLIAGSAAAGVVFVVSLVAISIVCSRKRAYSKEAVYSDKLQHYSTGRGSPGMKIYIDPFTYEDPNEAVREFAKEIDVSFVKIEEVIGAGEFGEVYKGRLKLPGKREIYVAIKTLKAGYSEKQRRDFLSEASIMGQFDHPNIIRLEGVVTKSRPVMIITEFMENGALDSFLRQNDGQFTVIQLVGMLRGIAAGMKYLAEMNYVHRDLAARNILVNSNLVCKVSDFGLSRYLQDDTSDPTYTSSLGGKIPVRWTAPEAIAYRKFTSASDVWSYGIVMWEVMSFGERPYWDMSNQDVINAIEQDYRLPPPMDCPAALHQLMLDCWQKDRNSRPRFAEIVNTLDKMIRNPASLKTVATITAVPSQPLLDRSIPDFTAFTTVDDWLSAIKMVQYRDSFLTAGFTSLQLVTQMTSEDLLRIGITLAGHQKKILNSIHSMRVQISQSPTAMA

[4] = target: panel of 255 wild-type kinases (Homo sapiens, UniProt Q13627); conditions: kinase DYRK1A, 1 µmol/L single concentration, cited from earlier work
[5] = target: panel of 255 wild-type kinases (Homo sapiens, UniProt Q13177); conditions: PAK2, 1 µmol/L single concentration, cited from earlier work
[6] = target: panel of 255 wild-type kinases (Homo sapiens, UniProt Q9HCP0); conditions: kinase CK1γ1, 1 µmol/L single concentration, cited from earlier work
[7] = target: panel of 255 wild-type kinases (Homo sapiens, UniProt Q9UM73); conditions: ALK kinase assay, 1 µmol/L single concentration, cited from earlier work
[8] = target: T2, panel of 255 wild-type kinases (Homo sapiens, UniProt P54760); conditions: kinase EPHB4, 1 µmol/L single concentration, cited from earlier work
T2 sequence (P54760 16-987): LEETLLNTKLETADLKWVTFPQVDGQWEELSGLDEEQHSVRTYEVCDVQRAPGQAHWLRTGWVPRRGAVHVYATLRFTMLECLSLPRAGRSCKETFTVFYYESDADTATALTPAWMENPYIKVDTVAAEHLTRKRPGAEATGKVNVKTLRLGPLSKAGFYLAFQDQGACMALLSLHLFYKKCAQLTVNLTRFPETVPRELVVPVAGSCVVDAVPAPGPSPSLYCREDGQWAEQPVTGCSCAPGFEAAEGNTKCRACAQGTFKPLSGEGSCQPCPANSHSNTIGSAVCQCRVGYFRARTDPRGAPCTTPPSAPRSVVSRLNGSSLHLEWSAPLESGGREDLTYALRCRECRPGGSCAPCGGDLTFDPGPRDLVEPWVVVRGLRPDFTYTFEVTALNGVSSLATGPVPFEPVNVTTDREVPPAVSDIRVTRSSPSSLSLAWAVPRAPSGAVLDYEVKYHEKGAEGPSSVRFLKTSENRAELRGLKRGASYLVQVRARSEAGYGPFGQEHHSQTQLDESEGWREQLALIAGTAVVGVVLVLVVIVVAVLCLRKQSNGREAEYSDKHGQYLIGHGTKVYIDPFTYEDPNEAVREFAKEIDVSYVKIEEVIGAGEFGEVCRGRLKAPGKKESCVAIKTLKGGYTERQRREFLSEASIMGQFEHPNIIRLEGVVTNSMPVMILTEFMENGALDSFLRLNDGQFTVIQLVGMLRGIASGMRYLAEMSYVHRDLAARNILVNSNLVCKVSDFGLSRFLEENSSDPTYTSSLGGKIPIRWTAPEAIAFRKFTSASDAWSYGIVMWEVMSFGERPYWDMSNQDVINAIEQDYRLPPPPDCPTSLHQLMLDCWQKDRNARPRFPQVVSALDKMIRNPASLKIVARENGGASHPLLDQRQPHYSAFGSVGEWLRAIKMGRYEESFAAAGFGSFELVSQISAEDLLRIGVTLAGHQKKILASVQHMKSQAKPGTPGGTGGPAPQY

[9] = target: panel of 255 wild-type kinases (Homo sapiens, UniProt P00533); conditions: kinase EGFR, 1 µmol/L single concentration, cited from earlier work
[10] = ref DOI: 10.1371/journal.pone.0092146
[11] = ref DOI: 10.1158/1535-7163.MCT-18-0877

Row | SMILES | %-inhibition CaMK2γ [1, 10] [%] | %-inhibition AurB [2, 10] [%] | %-inhibition at 1 µmol/L, EPHB1 [3, 10] [%] | %-inhibition at 1 µmol/L, DYRK1A [4, 10] [%] | %-inhibition, PAK2 [5, 11] [%] | %-inhibition at 1 µmol/L, CK1γ1 [6, 11] [%] | %-inhibition CaMK2γ [1, 11] [%] | %-inhibition AurB [2, 11] [%] | %-inhibition ALK [7, 11] [%] | %-inhibition at 1 µmol/L, EPHB4 [8, 11] [%] | %-inhibition at 1 µmol/L, EPHB1 [3, 11] [%] | %-inhibition at 1 µmol/L, DYRK1A [4, 11] [%] | %-inhibition at 1 µmol/L, EGFR [9, 11] [%] | %-inhibition, PAK2 [5, 10] [%] | %-inhibition at 1 µmol/L, CK1γ1 [6, 10] [%] | %-inhibition ALK [7, 10] [%] | %-inhibition at 1 µmol/L, EGFR [9, 10] [%] | %-inhibition at 1 µmol/L, EPHB4 [8, 10] [%]
1 | CC(C)(C)c1nc(-c2cccc(NS(=O)(=O)c3c(F)cccc3F)c2F)c(-c2ccnc(N)n2)s1 [dabrafenib] | -5.47 | 39 | 12 | 16 | – | – | – | – | – | – | – | – | – | – | – | – | – | –
2 | C=CC(=O)N1CCC[C@@H](n2nc(-c3ccc(Oc4ccccc4)cc3)c3c(N)ncnc32)C1 [ibrutinib] | – | – | – | – | -6 | 3.68 | -1.83 | -1.1 | 5.45 | 27 | 12 | -3.54 | – | – | – | – | – | –
3 | CO[C@@H]1[C@H](N(C)C(=O)c2ccccc2)C[C@H]2O[C@]1(C)n1c3ccccc3c3c4c(c5c6ccccc6n2c5c31)C(=O)NC4 [midostaurin] | – | – | – | – | – | -0.49 | – | 86 | 87 | 1.2 | – | – | 69 | – | – | – | – | –
4 | C=CC(=O)Nc1cc(Nc2nccc(-c3cn(C)c4ccccc34)n2)c(OC)cc1N(C)CCN(C)C [osimertinib] | – | – | – | – | -14 | 10 | 4.25 | -1.24 | 99 | -3 | 13 | 0.712 | – | – | – | – | – | –
5 | CC(=O)Nc1cccc(-n2c(=O)n(C3CC3)c(=O)c3c(Nc4ccc(I)cc4F)n(C)c(=O)c(C)c32)c1 [trametinib] | 7 | -4 | -8 | -1.23 | – | – | – | – | – | – | – | – | – | -9 | 0.211 | -2.82 | -0.0959 | -3.38
6 | CCCS(=O)(=O)Nc1ccc(F)c(C(=O)c2c[nH]c3ncc(-c4ccc(Cl)cc4)cc23)c1F [vemurafenib] | -10 | 6 | -1.63 | -18 | – | – | – | – | – | – | – | – | – | 13 | -2 | 1.14 | 7 | 3.73
